Here are results for one molecule from patent US4288630A, “1-Hydroxymethyl-11,15-dihydroxy-prosten-1-ol-derivatives” (American Cyanamid Company, priority 1980, dated 1981).

Format in all cases: in vivo, dog
Common to all, as to details: Konzett data

In one assay the test system is Hist. As to the kind of experiment: Konzett bronchodilator assay, Hist.
For the next assay, the system named is 5-HT. As to the kind of experiment: Konzett bronchodilator assay, 5-HT.
Another assay relates to Ach. Description: Konzett bronchodilator assay, Ach.

Each structure is given as a SMILES string.

With `CCCCCC(C)(O)/C=C/C1C(O)CC(=O)C1C/C=C\CCCCO` (racemic) [dl-1,11,15-trihydroxymethyl-9-oxo-15-methyl-5-cis-13-trans prostadiene], the “Hist (ED50 g/kg)” value with Hist amounted to 0.00075 g/kg. Also, the “5-HT (ED50 g/kg)” value in the assay on 5-HT was determined as 0.0083 g/kg. Moreover, in the assay on Ach, the “Ach (ED50 g/kg)” value amounted to 0.0043 g/kg.
